Results as given in patent US5026554A, “Method of inhibiting fungal growth using squalene synthetase inhibitors” (Merck & Co., Inc., priority 1990, dated 1991).
≈ marks a conversion by molar mass, not a printed value.

Assays:
Squalene Synthetase = target: T1, Squalene Synthetase (Rattus norvegicus, UniProt Q02769); assay: Squalene Synthetase Assay (intrinsic squalene synthetase inhibitory activity); type: biochemical; conditions: rat liver microsomes, [4-14C]farnesyl-pyrophosphate, 30° C., 20 minutes
T1 construct: from tissue; host or cells: liver microsomes of male Charles River CD rats fed 0.1% lovastatin
T1 sequence (Q02769 1-416): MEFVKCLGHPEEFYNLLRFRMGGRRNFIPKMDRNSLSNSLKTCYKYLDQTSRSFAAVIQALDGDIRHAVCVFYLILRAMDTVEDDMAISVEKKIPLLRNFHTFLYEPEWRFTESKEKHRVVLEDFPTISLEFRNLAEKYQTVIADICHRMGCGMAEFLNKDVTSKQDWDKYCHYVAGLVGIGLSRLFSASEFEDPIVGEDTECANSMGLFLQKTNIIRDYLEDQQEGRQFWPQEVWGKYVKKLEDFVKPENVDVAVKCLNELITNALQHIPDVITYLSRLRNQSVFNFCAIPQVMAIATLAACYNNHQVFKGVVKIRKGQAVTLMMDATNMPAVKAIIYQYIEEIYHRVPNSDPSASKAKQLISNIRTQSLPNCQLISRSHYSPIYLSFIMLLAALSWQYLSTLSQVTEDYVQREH
Procedure: The intrinsic squalene synthetase inhibitory activity of representative compounds of this invention was measured by the standard in vitro protocol described below:
Male, Charles River CD rats (120 to 150 g) were fed a diet containing 0.1% lovastatin for 4 days. The livers from these rats were homogenized in 5 volumes (ml/g) of ice cold 50 mM HEPES (4-(2-hydroxyethyl)-1-piperazine-ethanesulfonic acid), 5 mM EDTA(ethylenediaminetetraacetic acid) pH 7.5 with a Potter-Elvehjem type tissue grinder. The homogenate was centrifuged twice at 20,000×g for 15 minutes at 4° C., discarding the pellet each time. The supernatant was then centrifuged at 100,000×g for 1 hour at 4° C. The resulting microsomal pellet was resuspended in a volume of the above homogenizing buffer equal to one-fifth the volume of the original homogenate. This microsomal preparation has a protein concentration of about 7 mg/ml. The microsomal suspensions were stored in aliquots at -70° C. Squalene synthetase activity in these aliquots is stable for at least several months.
Prenyl transferase was purified to use in the enzymatic synthesis of radiolabelled farnesyl pyrophosphate. Prenyl transferase was assayed by the method of Rilling (Methods in Enzymology 110, 125-129 (1985)) and a unit of activity is defined as the amount of enzyme that will produce 1 μ mole of farnesyl pyrophosphate per minute at 30° C. in the standard assay. […]

A. nidulans R21 = assay: antifungal MIC, microtiter dilution assay, filamentous fungi; type: cell-based; conditions: Aspergillus nidulans, 42 hours, 28° C., read-out: Minimum Inhibitory Concentration
Procedure: (§1) The compounds are particularly active towards filamentous fungi and yeasts including Candida albicans and Cryptococcus neoformans. The sensitivity of filamentous fungi and yeast was determined using inhibitor dilution assays in microtiter format. The compounds were dissolved in DMSO at 2 mg/ml and serially diluted in 0.1M phosphate buffer, pH 7.0 in the microtiter dish from 100 to 0.006 μg/ml. A standardized spore suspension for testing the filamentous fungi was prepared by inoculating Antibiotic Medium #3 containing 1.5% agar with spores such that 1.5×10^3 colony forming units were added per well. The microtiter wells were filled with 50 μl of buffer containing compound and 50 μl of inoculated medium.
(§2) The sensitivity of yeasts was determined by inoculating yeast nitrogen base containing 1% dextrose (YNB/G) with aliquots of an overnight yeast culture grown in Yeast Morphology (YM) media at 35° C. and diluting in YNB/G to yield a final concentration of 1.5-7.5×10^3 colony forming units/well. To test the sensitivity of yeast, compound was solubilized in 10 percent aqueous DMSO at 2.56 mg/ml. The compound was diluted serially in YNB/G from 128 to 0.06 μg/ml and further diluted 1:10 in YNB/G. The wells were filled with 150 μl of media containing drug. […]

Aspergillus flavus MF383 = assay: as above; type: cell-based; conditions: 42 hours, 28° C., read-out: Minimum Inhibitory Concentration
Procedure: as §1, §2

C. parapsilosis MY1010 = assay: antifungal MIC, microtiter dilution assay, yeast; type: cell-based; conditions: Lodderomyces parapsilosis, YNB/G, 24 to 48 hours, 35° C., read-out: Minimum Inhibitory Concentration
Procedure: as §1
(§3) The sensitivity of yeasts was determined by inoculating yeast nitrogen base containing 1% dextrose (YNB/G) with aliquots of an overnight yeast culture grown in Yeast Morphology (YM) media at 35° C. and diluting in YNB/G to yield a final concentration of 1.5-7.5×10^3 colony forming units/well. To test the sensitivity of yeast, compound was solubilized in 10 percent aqueous DMSO at 2.56 mg/ml. The compound was diluted serially in YNB/G from 128 to 0.06 μg/ml and further diluted 1:10 in YNB/G. The wells were filled with 150 μl of media containing drug. The minimum inhibitory concentration (MIC) is defined as the lowest concentration to prevent growth after an incubation for 42 hours, at 28° C. for the filamentous fungi and 24 to 48 hours, at 35° C. for the yeasts. Representative of the antifungal activity are the minimum inhibitory concentration data shown below.

C. tropicalis MY1012 = assay: antifungal MIC, microtiter dilution assay, yeast; type: cell-based; conditions: Candida tropicalis, YNB/G, 24 to 48 hours, 35° C., read-out: Minimum Inhibitory Concentration
Procedure: as §1, §3

Candida albicans MY1055 = assay: antifungal MIC, microtiter dilution assay, yeast; type: cell-based; conditions: YNB/G, 24 to 48 hours, 35° C., read-out: Minimum Inhibitory Concentration
Procedure: as §1, §3

Crypt. neoformans MY1051 = assay: antifungal MIC, microtiter dilution assay, yeast; type: cell-based; conditions: Cryptococcus neoformans, YNB/G, 24 to 48 hours, 35° C., read-out: Minimum Inhibitory Concentration
Procedure: as §1, §3

`CC(=O)OC(CCCC12OC(C(=O)O)C(O)(C(=O)O)C(C(=O)O)(O1)C(OC(=O)CCC=CC(C)CCCc1ccccc1)C2O)C(C)Cc1ccccc1` (stereo not shown) [Compound A] was tested, and the IC50 (Squalene Synthetase) was 9 nM, the MIC (A. nidulans R21) was 1.5 µg/mL (≈ 1.99 µM) and the MIC (Aspergillus flavus MF383) was 1.5 µg/mL (≈ 1.99 µM). For the same compound, the MIC (C. parapsilosis MY1010) was 8 µg/mL (≈ 10.6 µM), the MIC (C. tropicalis MY1012) was 8 µg/mL (≈ 10.6 µM) and the MIC (Candida albicans MY1055) was 16 µg/mL (≈ 21.2 µM). The MIC (Crypt. neoformans MY1051) was 1 µg/mL (≈ 1.32 µM).
